target: endogenous, cell-bound CD73 on SK-MEL-28 cells (Homo sapiens (Human), UniProt P21589); experiment: Inhibition of endogenous, cell-bound CD73 enzyme activity in SK-MEL-28 cells (Malachite Green); assay type: cell-based; conditions: 100 μM AMP, 30 minutes at room temperature
Description: The day before the experiment, 5000 cells were plated per well in a 96-well plate. Cells were washed twice with […] reaction buffer (20 mM HEPES, pH 7.4, 125 mM NaCl, 1 mM KCl, 2 mM MgCl2, 10 mM glucose) to remove residual inorganic phosphate. After washing, assays contained serial dilutions of test compounds and 100 μM of AMP in a total volume of 200 μL reaction buffer, with a final DMSO concentration≤0.5%. After 30 minutes at room temperature, supernatant was removed from the cells. […] The concentration of inorganic phosphate was determined using a phosphate standard curve to determine IC50.

Chain of endogenous, cell-bound CD73 on SK-MEL-28 cells (P21589 27-574): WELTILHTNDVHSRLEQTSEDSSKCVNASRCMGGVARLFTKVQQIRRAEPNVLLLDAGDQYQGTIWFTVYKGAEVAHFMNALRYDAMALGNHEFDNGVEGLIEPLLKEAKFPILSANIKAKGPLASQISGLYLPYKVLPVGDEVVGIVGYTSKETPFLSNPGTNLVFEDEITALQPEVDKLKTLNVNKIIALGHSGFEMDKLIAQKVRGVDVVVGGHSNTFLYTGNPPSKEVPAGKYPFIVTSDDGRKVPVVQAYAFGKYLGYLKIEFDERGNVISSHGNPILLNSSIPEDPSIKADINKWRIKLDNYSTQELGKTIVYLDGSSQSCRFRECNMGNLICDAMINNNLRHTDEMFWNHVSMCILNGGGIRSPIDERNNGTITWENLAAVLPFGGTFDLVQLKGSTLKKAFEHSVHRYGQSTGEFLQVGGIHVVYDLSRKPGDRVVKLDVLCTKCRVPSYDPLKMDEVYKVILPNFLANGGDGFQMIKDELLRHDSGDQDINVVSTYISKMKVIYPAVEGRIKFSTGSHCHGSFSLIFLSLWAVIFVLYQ

Row | Structure (SMILES) | IC50 [nM]
1 | N#Cc1cccc(CC(OC[C@H]2O[C@@H](n3cnc4c(N)nc(N=[N+]=[N-])nc43)[C@@H](F)[C@@H]2O)(C(=O)O)C(=O)O)c1 [compound 40, 2-(((2R,3R,4S,5R)-5-(6-amino-2-azido-9H-purin-9-yl)-4-fluoro-3-hydroxytetrahydrofuran-2-yl)methoxy)-2-(3-cyanobenzyl)malonic acid] | 2410
2 | Nc1nc(Cl)nc2c1ncn2[C@@H]1O[C@H](COC(Cc2ccccc2)(C(=O)O)C(=O)O)[C@@H](O)[C@@H]1F [compound 6, 2-(((2R,3R,4S,5R)-5-(6-amino-2-chloro-9H-purin-9-yl)-4-fluoro-3-hydroxytetrahydro-furan-2-yl)methoxy)-2-benzylmalonic acid] | 489
3 | Nc1nc(Cl)nc2c1ncn2[C@@H]1O[C@H](COC(Cc2ccc3ccccc3c2)(C(=O)O)C(=O)O)[C@@H](O)[C@@H]1F [compound 17, 2-(((2R,3R,4S,5R)-5-(6-amino-2-chloro-9H-purin-9-yl)-4-fluoro-3-hydroxytetrahydrofuran-2-yl)methoxy)-2-(naphthalen-2-ylmethyl)malonic acid] | 1810
4 | Nc1nc(Cl)nc2c1ncn2[C@@H]1O[C@H](COC(Cc2ccc(C(F)(F)F)cc2)(C(=O)O)C(=O)O)[C@@H](O)[C@@H]1F [compound 20, 2-(((2R,3R,4S,5R)-5-(6-amino-2-chloro-9H-purin-9-yl)-4-fluoro-3-hydroxytetrahydrofuran-2-yl)methoxy)-2-(4-(trifluoromethyl)benzyl)malonic acid] | 611
5 | Nc1nc(Cl)nc2c1ncn2[C@@H]1O[C@H](COC(Cc2cccc(-c3nnn[nH]3)c2)(C(=O)O)C(=O)O)[C@@H](O)[C@@H]1F [compound 53, 2-(3-(1H-tetrazol-5-yl)benzyl)-2-(((2R,3R,4S,5R)-5-(6-amino-2-chloro-9H-purin-9-yl)-4-fluoro-3-hydroxytetrahydrofuran-2-yl)methoxy)malonic acid] | 2600
6 | COc1cccc(CC(OC[C@H]2O[C@@H](n3cnc4c(N)nc(Cl)nc43)[C@@H](F)[C@@H]2O)(C(=O)O)C(=O)O)c1 [compound 49] | 2380
7 | Nc1nc(Cl)nc2c1ncn2[C@@H]1O[C@H](COC(Cc2ccc(F)cc2)(C(=O)O)C(=O)O)[C@@H](O)[C@@H]1F [compound 47] | 669
8 | Nc1nc(Cl)nc2c1ncn2[C@@H]1O[C@H](COC(Cc2ccsc2)(C(=O)O)C(=O)O)[C@@H](O)[C@@H]1F [compound 23] | 480
9 | Nc1nc(Cl)nc2c1ncn2[C@@H]1O[C@H](COC(Cc2ccc(-c3nnn[nH]3)cc2)(C(=O)O)C(=O)O)[C@@H](O)[C@@H]1F [compound 54, 2-(4-(1H-tetrazol-5-yl)benzyl)-2-(((2R,3R,4S,5R)-5-(6-amino-2-chloro-9H-purin-9-yl)-4-fluoro-3-hydroxytetrahydro-furan-2-yl)methoxy)malonic acid] | 973
10 | Nc1cccc(CC(OC[C@H]2O[C@@H](n3cnc4c(N)nc(Cl)nc43)[C@@H](F)[C@@H]2O)(C(=O)O)C(=O)O)c1 [compound 27] | 886
11 | Nc1nc(Cl)nc2c1ncn2[C@@H]1O[C@H](COC(Cc2ccccc2)(C(=O)O)C(=O)O)[C@@H](O)[C@H]1N [compound 55, 2-(((2R,3S,4R,5R)-4-amino-5-(6-amino-2-chloro-9H-purin-9-yl)-3-hydroxytetrahydrofuran-2-yl)methoxy)-2-benzylmalonic acid] | > 50000
12 | Nc1nc(Cl)nc2c1ncn2[C@@H]1O[C@H](COC(CCCCO)(C(=O)O)C(=O)O)[C@@H](O)[C@@H]1F [compound 18, 2-(((2R,3R,4S,5R)-5-(6-amino-2-chloro-9H-purin-9-yl)-4-fluoro-3-hydroxytetrahydrofuran-2-yl)methoxy)-2-(4-hydroxybutyl)malonic acid] | 6320
13 | CC(C)(C)OC(=O)Nc1nc(N=[N+]=[N-])nc2c1ncn2[C@@H]1O[C@H](COC(Cc2cccc(C#N)c2)(C(=O)O)C(=O)O)[C@@H](O)[C@@H]1F [compound 41] | 4880
14 | Nc1nc(Cl)nc2c1ncn2[C@@H]1O[C@H](COC(Cc2ccc(OC(F)(F)F)cc2)(C(=O)O)C(=O)O)[C@@H](O)[C@@H]1F [compound 36] | 197
15 | N#Cc1cccc(CC(OC[C@H]2O[C@@H](n3cnc4c(N)nc(Cl)nc43)[C@@H](F)[C@@H]2O)(C(=O)O)C(=O)O)c1 [compound 35] | 261
16 | Nc1nc(Cl)nc2c1ncn2[C@@H]1O[C@H](COC(Cc2ccc(CO)cc2)(C(=O)O)C(=O)O)[C@@H](O)[C@@H]1F [compound 39] | 493

Continued, values first:

Row | IC50 [nM] | Structure (SMILES)
17 | 1330 | Nc1nc(Cl)nc2c1ncn2[C@@H]1O[C@H](COC(Cc2ccc(C(=O)O)s2)(C(=O)O)C(=O)O)[C@@H](O)[C@@H]1F [compound 77, 2-(((2R,3R,4S,5R)-5-(6-amino-2-chloro-9H-purin-9-yl)-4-fluoro-3-hydroxytetrahydro-furan-2-yl)methoxy)-2-((5-carboxythiophen-2-yl)methyl)malonic acid]
18 | 588 | Nc1nc(Cl)nc2c1ncn2[C@@H]1O[C@H](COC(Cc2cn[nH]c2)(C(=O)O)C(=O)O)[C@@H](O)[C@@H]1F [compound 64, 2-((1H-pyrazol-4-yl)methyl)-2-(((2R,3R,4S,5R)-5-(6-amino-2-chloro-9H-purin-9-yl)-4-fluoro-3-hydroxytetrahydrofuran-2-yl)methoxy)malonic acid]
19 | 234 | Nc1nc(Cl)nc2c1ncn2[C@@H]1O[C@H](COC(Cc2ccc(CC(=O)O)cc2)(C(=O)O)C(=O)O)[C@@H](O)[C@@H]1F [compound 78, 2-(((2R,3R,4S,5R)-5-(6-amino-2-chloro-9H-purin-9-yl)-4-fluoro-3-hydroxytetrahydrofuran-2-yl)methoxy)-2-(4-(carboxymethyl)benzyl)malonic acid]
20 | 1250 | Nc1nc(Cl)nc2c1ncn2[C@@H]1O[C@H](COC(Cc2cccc(O)c2)(C(=O)O)C(=O)O)[C@@H](O)[C@@H]1F [compound 56, 2-(((2R,3R,4S,5R)-5-(6-amino-2-chloro-9H-purin-9-yl)-4-fluoro-3-hydroxytetrahydrofuran-2-yl)methoxy)-2-(3-hydroxybenzyl)malonic acid]
21 | 1310 | Nc1nc(Cl)nc2c1ncn2[C@@H]1O[C@H](COC(Cc2cnc(C(=O)O)s2)(C(=O)O)C(=O)O)[C@@H](O)[C@@H]1F [compound 67, 2-(((2R,3R,4S,5R)-5-(6-amino-2-chloro-9H-purin-9-yl)-4-fluoro-3-hydroxytetrahydro-furan-2-yl)methoxy)-2-((2-carboxythiazol-5-yl)methyl)malonic acid]
22 | 443 | Nc1nc(Cl)nc2c1ncn2[C@@H]1O[C@H](COC(Cc2ccc3oc(C(=O)O)cc3c2)(C(=O)O)C(=O)O)[C@@H](O)[C@@H]1F [compound 88, 2-(((2R,3R,4S,5R)-5-(6-amino-2-chloro-9H-purin-9-yl)-4-fluoro-3-hydroxytetrahydro-furan-2-yl)methoxy)-2-((2-carboxybenzofuran-5-yl)methyl)malonic acid]
23 | 990 | N#Cc1ccc(CC(OC[C@H]2O[C@@H](n3cnc4c(N)nc(Cl)nc43)[C@@H](F)[C@@H]2O)(C(=O)O)C(=O)O)cc1F [compound 75, 2-(((2R,3R,4S,5R)-5-(6-amino-2-chloro-9H-purin-9-yl)-4-fluoro-3-hydroxytetrahydrofuran-2-yl)methoxy)-2-(4-cyano-3-fluorobenzyl)malonic acid]
24 | 1370 | COc1ccc(CC(OC[C@H]2O[C@@H](n3cnc4c(N)nc(Cl)nc43)[C@@H](F)[C@@H]2O)(C(=O)O)C(=O)O)cc1Cl [compound 85, 2-(((2R,3R,4S,5R)-5-(6-amino-2-chloro-9H-purin-9-yl)-4-fluoro-3-hydroxytetrahydrofuran-2-yl)methoxy)-2-(3-chloro-4-methoxybenzyl)malonic acid]
25 | 177 | Nc1nc(Cl)nc2c1ncn2[C@@H]1O[C@H](COC(Cc2ccc(Cl)cc2F)(C(=O)O)C(=O)O)[C@@H](O)[C@@H]1F [compound 80, 2-(((2R,3R,4S,5R)-5-(6-amino-2-chloro-9H-purin-9-yl)-4-fluoro-3-hydroxytetrahydrofuran-2-yl)methoxy)-2-(4-chloro-2-fluorobenzyl)malonic acid]
26 | 2010 | Nc1nc(Cl)nc2c1ncn2[C@@H]1O[C@H](COC(Cc2cnn(Cc3ccccc3)c2)(C(=O)O)C(=O)O)[C@@H](O)[C@@H]1F [compound 63, 2-(((2R,3R,4S,5R)-5-(6-amino-2-chloro-9H-purin-9-yl)-4-fluoro-3-hydroxytetrahydro-furan-2-yl)methoxy)-2-((1-benzyl-1H-pyrazol-4-yl)methyl)malonic acid]
27 | 626 | Nc1nc(Cl)nc2c1ncn2[C@@H]1O[C@H](COC(Cc2ccc(S(N)(=O)=O)cc2)(C(=O)O)C(=O)O)[C@@H](O)[C@@H]1F [compound 86, 2-(((2R,3R,4S,5R)-5-(6-amino-2-chloro-9H-purin-9-yl)-4-fluoro-3-hydroxytetrahydrofuran-2-yl)methoxy)-2-(4-sulfamoylbenzyl)malonic acid]
28 | 549 | Nc1nc(Cl)nc2c1ncn2[C@@H]1O[C@H](COC(Cc2ccc(C(=O)NCCC(=O)O)cc2)(C(=O)O)C(=O)O)[C@@H](O)[C@@H]1F [compound 87, 2-(((2R,3R,4S,5R)-5-(6-amino-2-chloro-9H-purin-9-yl)-4-fluoro-3-hydroxytetrahydro-furan-2-yl)methoxy)-2-(4-((2-carboxy-ethyl)carbamoyl)benzyl)malonic acid]
29 | 4120 | COC(=O)C(Cc1ccc(-c2ccccc2)cc1)(OC[C@H]1O[C@@H](n2cnc3c(N)nc(Cl)nc32)[C@@H](F)[C@@H]1O)C(=O)O (single isomer, unassigned) [compound 82]
30 | 6970 | Nc1nc(Cl)nc2c1ncn2[C@@H]1O[C@H](COC(Cc2cc(-c3ccccc3)no2)(C(=O)O)C(=O)O)[C@@H](O)[C@@H]1F [compound 61, 2-(((2R,3R,4S,5R)-5-(6-amino-2-chloro-9H-purin-9-yl)-4-fluoro-3-hydroxytetrahydrofuran-2-yl)methoxy)-2-((3-phenylisoxazol-5-yl)methyl)malonic acid]

Reference: patent US10472364B2 (Calithera Biosciences, Inc., priority 2016, dated 2019)
